{"source": "patent US12409237B1", "about": "“Methods and models for assessing efficacy of immunotherapies” (The Jackson Laboratory, priority 2016, dated 2025)", "test_system": "human BL0293 tumor cells (bladder cancer cells)", "assay": "Tumor growth of BL0293 patient-derived xenograft in NSG-Quad mice engrafted with human CD34+ hematopoietic stem cells", "assay_type": "in vivo, mouse", "details": "NSG-Quad mice with human CD34+ HSC and BL0293 xenografts; intravenous 10 mg/kg on day 0, then 5 mg/kg on days 5, 10 and 15; versus vehicle; tumors 60-100 mm^3 at grouping", "method": "NSG-Quad mice were irradiated with 50 cGy whole body radiation. NSG-SGM3 mice were irradiated with 50 cGy whole body radiation and NSG mice were irradiated with 100 cGy whole body radiation as controls. Each mouse received about 100,000 human CD34^+ hematopoietic stem cells from the same donor by injection. Blood cells obtained by retro-orbital bleeding at 10 weeks post-engraftment were assessed by flow cytometry for mouse CD45, human CD45, human CD20, human CD3, human CD33, human CD14, and human CD56 (FIG. 1A-F). Live cells were gated using LIVE/DEAD® (ThermFisher Scientific).\nBR1126, MDA-MB-231, TM1149, and BL0293 tumor cells were separately implanted subcutaneously into NSG-Quad and NSG-SGM3 mice at 7-12 weeks post-CD34^+-cell engraftment (see Example 1). Tumor sizes were measured with calipers.\nNSG-Quad mice xenografted with human BL0293 tumor cells (bladder cancer cells) were grouped when tumors reached 60-100 mm^3, and mice were then administered intravenous pembrolizumab at 10 mg/kg on day 0 followed by 5 mg/kg on days 5, 10, and 15. Tumor sizes were measured by calipers.\nFIG. 5 is a graph depicting tumor volumes for NSG-Quad mice that have human CD34^+ hematopoietic stem cell xenografts and BL0293 patient-derived xenografts and receiving either pembrolizumab (Keytruda®) or vehicle. Each data point corresponds to a single mouse at a specific time-point. […]", "note": "“Also recorded” adds a separate entry of the source.", "data": [{"substance": "pembrolizumab", "values": [{"measurement": "tumor growth (tumor volume measured by calipers)", "result": "reduced tumor growth rates; also recorded: slower tumor growth on average"}]}]}
